A short description of one data set: Kinetic solubility. The class given is physicochemical. The note with it: PBS pH 7.4 buffer, pH 7.4, aqueous buffer, kinetic from dmso stock. How it is done: 10 mM DMSO Stock solutions of tested compounds were distributed into filtration plate (Multiscreen Durapore 0.45µm) containing PBS pH 7.4 buffer to a final maximum concentration of 130 μM (1.3 % DMSO/buffer). Solutions or suspensions were shaken for 30 min at room temperature. The samples were filtered under vacuum into a collection plate and diluted 50 % with ACN for UV analysis. Quantification was performed against a Reference plate containing the same tested compounds fully solubilized in ACN/PBS buffer 1:1. Reference and Sample plates were analyzed by UPLC/UV-MS using a generic UPLC method. […]

Data set [1] is described as follows: Plasma protein binding by equilibrium dialysis, murine. Format: in vitro ADME. The note with it: mouse, read-out: PPB (% bound). How it is done:
The free and bound fractions of the tested compounds in mouse and human plasma were determined by equilibrium dialysis using a 96-well Teflon dialysis unit (HTDialysis plate complete unit, HT Dialysis, USA). The HTDialysis plate complete unit consists of a 96-well plate with wells vertically bisected by a semipermeable membrane (membranes strips 12 to 14 kDa) creating two chambers. A 125 μL aliquot of plasma containing tested compound at 10 μM was placed on one side and 125 μL of Dulbecco‘s phosphate buffered saline (D-PBS) on the other. The plate was incubated at 37 °C for 6 hr under gentle agitation. Then, samples from both plasma and buffer compartment were analyzed by a LC-MS/MS method to measure the free fraction and the bound fraction to the plasma proteins. […]
For orientation: Equilibrium dialysis compares concentrations on both sides of a semipermeable membrane.

In data set [2] the test system is diet-induced obese model of NASH. As to the kind of experiment: NASH mouse model (AMLN diet-induced obese). The class given is in vivo, C57BL/6JRj mice. The note with it: oral, 8 wk. How it is done: Fig. 6. Effect of the lead compound in a diet-induced obese model of NASH. Mice fed with a high fat, high fructose, and cholesterol supplemented diet for 38 wk were then treated in the last 8 wk with vehicle, dEF3122, or OCA (obeticholic acid) at indicated concentrations (n = 12 animals per group). (A and B) Histopathological mean score changes between the beginning and end of the treatment for liver portal inflammation (A) and liver portal fibrosis (B) are shown with representative stained liver sections of hematoxylin and eosin (H&E) and picrosirius red stains, respectively. (C–E) (C) Areas of kidney fibrosis at the end of the treatment are shown as % of the total area of the selected fields with representative sections of the kidney stained with picrosirius red. (D) % CD3 and (E) % F4/80 positive areas in kidneys with representative sections of CD3 and F4/80 immunostainings. *P < 0.05, **P < 0.01, and ***P < 0.001 from the T test with a preliminary nonsignificant Shapiro–Wilk test or from Wilcoxon signed–rank test otherwise.
Five-week-old male C57BL/6JRj mice were fed either chow diet or AMLN diet (40% total fat kcal of which 18.5% were trans-fat kcal, 20% fructose, and 2% cholesterol). This diet was maintained for 30 wk prior to study initiation. Three weeks prior to study initiation, liver biopsies were taken, and animals with steatosis grade <2 and fibrosis stage <1 were excluded from the study. Prior to the first administration of the test compound, stratified randomization of mice into treatment groups was performed according to collagen 1a1 (IHC) morphometry from the week 3 biopsies. Each treatment group consisted of 12 mice. For a total of 8 wk, compound dEF3122 was administered orally, twice daily at a concentration of 7 mg/kg or 20 mg/kg. OCA was administered orally, once daily at a concentration of 7 mg/kg. Animals were killed at the end of the treatment, and livers and kidneys were collected. […]
NASH histopathology and immunochemistry
Livers were fixed in 10 % neutral buffered formalin and paraffin-embedded; and sections were stained with H&E and picrosirius red to analyze their morphology. Histopathological analysis was performed by a pathologist blinded to the study. Fibrosis was evaluated by quantification of the picrosirius red positive areas. Inflammation was graded by counting the H&E positive inflammatory foci per field.
Kidneys were fixed in 4 % PFA and paraffin embedded. 4-μm sections were stained with picrosirius red. Images were acquired using a digital slide scanner (Nanozoomer S210 Digital Slide Scanner, Hamamatsu). Renal lesions were blindly examined by a renal pathologist. The extent of interstitial fibrosis was quantified using Image J software (NIH) on Sirius red scanned colored sections. In short, at least 20 random selected fields (original magnification, ×200) across the kidney cortex were analyzed per each kidney section, and the results were expressed as percentages of the total area of the selected fields.
For immunohistochemistry, 4-µm sections of paraffin-embedded kidneys were submitted for appropriate antigen retrieval by high pressure heating in a solution of Tris EDTA Tween or in a citrate solution. Then, sections were then incubated overnight at 4°C with the following antibodies: rabbit monoclonal anti-CD3 (Abcam, 1:100) and rat monoclonal anti- F4/80 (Biorad, 1:100). After washing, sections were incubated with appropriate amplification secondary antibody: biotin-coupled anti-rabbit (GE Healthcare) for CD3 and biotin-coupled anti-rat (Vector Laboratories) for F4/80, and then incubated with streptavidin coupled HRP (Southern). At the end, DAB (DAKO) staining was used to detect HRP. For quantification of CD3+ and F4/80+ renal cells, the degrees of cellular infiltrate were automatically quantified using ImageJ software (NIH) and expressed as a percentage of the surface area of the positive staining per field, in at least 10 random fields perp

The nature of data set [3]: Cryopreserved hepatocyte stability, mouse. The class given is in vitro ADME. The note with it: cryopreserved hepatocytes, murine hepatocytes, read-out: CLint mHep. The procedure:
Cryopreserved hepatocyte stability
Tested compounds (1 μM) were incubated with human cryopreserved hepatocytes (pool of 5) (IVT Celsis) and mouse cryopreserved hepatocytes (IVT Celsis). Hepatocytes (1, 0.5 or 0.25 x10^6 cells/mL, Williams’ Medium E (WME) with 4 mM L-glutamine and 2 mM magnesium sulphate) containing tested compound (final substrate concentration 1 μM; final DMSO concentration 0.25 %) were preincubated at 37 °C. The final incubation volume was 500 μl. 3 species-specific control compounds were included with each species. At 7 time points (0, 10, 20, 40, 60, 90, and 120 min), reactions were stopped by transferring 50 μl of the incubation mixture into 0.5 μM carbamazepine in cold acetonitrile. Tested compound concentrations were analyzed by LC-MS/MS and the resulting data were used to determine the half-life and intrinsic clearance of the compound in each species. […]

The mark [4] stands for this setting: dEF3122 twice daily 7 or 20 mg/kg, OCA once daily 7 mg/kg, vs vehicle.

Structures are written as SMILES.

Molecule `O=C(Nc1scc(C2CCc3ccccc3C2)c1C(=O)O)c1ccccc1` (centres unmarked) [dEF3122] had a solubility (kinetic) at 30 min in “Kinetic solubility” of less than 5 µM. Besides, the fraction unbound at 6 h, 10 µM in data set [1] is 0.001. Also, in data set [2] (twice daily 7 or 20 mg/kg), the “kidney interstitial lymphocytes infiltration (CD3)” value is on record as “attenuated interstitial lymphocytes infiltration” and the “kidney macrophages infiltration (F4/80)” value is “but not macrophages infiltration”. Moreover, in data set [2] (twice daily 7 or 20 mg/kg, picrosirius red), the kidney fibrosis entry was “dramatically reduced fibrosis”. In data set [2] (setting [4]), the liver portal fibrosis entry is “resolved portal inflammation and fibrosis”; the liver portal inflammation entry is recorded as “resolved portal inflammation”. Further, the hepatocyte CLint at 1 µM in data set [3] was less than 5 µL/min/1e6 cells.

As a reminder, the kinetic solubility is the concentration staying in solution when a stock, usually in DMSO, is diluted into the medium.
